Holding throughout (type): cell-based
Assay [1] relates to A2780Cis (cisplatin-resistant human ovarian cancer). The experiment in a line: In vitro cytotoxicity, SRB assay, A2780Cis. The note with it: for IC50: Homo sapiens, A2780cis, read-out: IC50 (nM) A2780Cis.
For assay [2], the system named is MV-4-11 (human biphenotypic leukaemia). In words: In vitro cytotoxicity, MTT assay, MV-4-11. Particulars: for IC50: Homo sapiens, MV4-11, read-out: IC50 (nM) MV4-11. (Formazan colour is commonly taken as a measure of viable cells.)
Assay [3] has as its system BALB/3T3 (normal mouse fibroblasts). In words: In vitro cytotoxicity, SRB assay, normal BALB/3T3 fibroblasts. The note with it: Table 5; BALB/3T3 normal mouse fibroblasts; read-out: IC50 (nM) BALB3T3 normal cells.

In the case of `CC[C@@H](C(=O)[C@@H](C)[C@@H](O)[C@H](C)[C@@H]1O[C@@H]([C@@H](CC)C(=O)O)CC[C@@H]1C)[C@H]1O[C@]2(C=C[C@@H](NC(=O)C(=O)NCc3ccccc3Cl)[C@]3(CC[C@@](C)([C@H]4CC[C@](O)(CC)[C@H](C)O4)O3)O2)[C@H](C)C[C@@H]1C` [FLC-00477-1•Na], in assay [1], the “SI A2780Cis” value worked out at 40.4 and the IC50 (as a rule, the concentration that gives 50% inhibition) is 3.54 nM. For the same molecule, in assay [2], the “SI MV4-11” value came out at 46.1 and the IC50 worked out at 3.11 nM. In addition, in assay [3], the IC50 amounted to 143 nM.
In the same order, the values of `CC[C@@H](C(=O)[C@@H](C)[C@@H](O)[C@H](C)[C@@H]1O[C@@H]([C@@H](CC)C(=O)O)CC[C@@H]1C)[C@H]1O[C@]2(C=C[C@@H](NC(=O)C(=O)NCc3ccccn3)[C@]3(CC[C@@](C)([C@H]4CC[C@](O)(CC)[C@H](C)O4)O3)O2)[C@H](C)C[C@@H]1C` [FLC-00478-1•Na] are 25.9, 63.6 nM, 9.2, 180 nM and 1650 nM.
For the molecule `CC[C@@H](C(=O)[C@@H](C)[C@@H](O)[C@H](C)[C@@H]1O[C@@H]([C@@H](CC)C(=O)O)CC[C@@H]1C)[C@H]1O[C@]2(C=C[C@@H](NC(=O)C(=O)NCc3cccnc3)[C@]3(CC[C@@](C)([C@H]4CC[C@](O)(CC)[C@H](C)O4)O3)O2)[C@H](C)C[C@@H]1C` [FLC-00479-1•Na], in assay [1], the “SI A2780Cis” value amounted to 15.8 and the IC50 was 272 nM. In assay [2], the “SI MV4-11” value came out at 12.6 and the concentration for half-maximal inhibition (IC50) came out at 343 nM. Moreover, in assay [3], the IC50 turned out to be 4300 nM.
On the same counts, the results for `CC[C@@H](C(=O)[C@@H](C)[C@@H](O)[C@H](C)[C@@H]1O[C@@H]([C@@H](CC)C(=O)O)CC[C@@H]1C)[C@H]1O[C@]2(C=C[C@@H](NC(=O)OCCOC(C)(C)C)[C@]3(CC[C@@](C)([C@H]4CC[C@](O)(CC)[C@H](C)O4)O3)O2)[C@H](C)C[C@@H]1C` [FLC-00480-1•Na] are 43.6, 4.25 nM, 9.7, 19.1 nM and 185 nM.
Take `CC[C@@H](C(=O)[C@@H](C)[C@@H](O)[C@H](C)[C@@H]1O[C@@H]([C@@H](CC)C(=O)O)CC[C@@H]1C)[C@H]1O[C@]2(C=C[C@@H](NC(=O)OCCOCCOCCOCCOC)[C@]3(CC[C@@](C)([C@H]4CC[C@](O)(CC)[C@H](C)O4)O3)O2)[C@H](C)C[C@@H]1C` [FLC-00481-1•Na]: the “SI A2780Cis” value in assay [1] was 17.4. For the same molecule, the IC50 in assay [1] came to 220 nM; in assay [2], 320 nM; in assay [3], 3830 nM. For the same molecule, the “SI MV4-11” value in assay [2] was found to be 12.0.
In the same order, the values of `CC[C@@H](C(=O)[C@@H](C)[C@@H](O)[C@H](C)[C@@H]1O[C@@H]([C@@H](CC)C(=O)O)CC[C@@H]1C)[C@H]1O[C@]2(C=C[C@@H](NC(=O)OCCS(C)(=O)=O)[C@]3(CC[C@@](C)([C@H]4CC[C@](O)(CC)[C@H](C)O4)O3)O2)[C@H](C)C[C@@H]1C` [FLC-00483-1•Na] are 21.2, 250 nM, 339 nM, 5310 nM and 15.7.
In the same order, the values of `CC[C@@H](C(=O)[C@@H](C)[C@@H](O)[C@H](C)[C@@H]1O[C@@H]([C@@H](CC)C(=O)O)CC[C@@H]1C)[C@H]1O[C@]2(C=C[C@@H](NC(=O)OCc3ccccc3Cl)[C@]3(CC[C@@](C)([C@H]4CC[C@](O)(CC)[C@H](C)O4)O3)O2)[C@H](C)C[C@@H]1C` [FLC-00484-1•Na] are 95.4, 0.25 nM, 0.59 nM, 23.9 nM and 40.7.
In the same order, the values of `CC[C@@H](C(=O)[C@@H](C)[C@@H](O)[C@H](C)[C@@H]1O[C@@H]([C@@H](CC)C(=O)O)CC[C@@H]1C)[C@H]1O[C@]2(C=C[C@@H](NC(=O)OCc3cc(Cl)cc(Cl)c3)[C@]3(CC[C@@](C)([C@H]4CC[C@](O)(CC)[C@H](C)O4)O3)O2)[C@H](C)C[C@@H]1C` [FLC-00485-1•Na] are 23.0, 4.62 nM, 20 nM, 106 nM and 5.3.
As to `CC[C@@H](C(=O)[C@@H](C)[C@@H](O)[C@H](C)[C@@H]1O[C@@H]([C@@H](CC)C(=O)O)CC[C@@H]1C)[C@H]1O[C@]2(C=C[C@@H](NC(=O)c3ccncc3)[C@]3(CC[C@@](C)([C@H]4CC[C@](O)(CC)[C@H](C)O4)O3)O2)[C@H](C)C[C@@H]1C` [FLC-00487-1•Na], in assay [1], the “SI A2780Cis” value was 79.6. Also, the results for the 50% inhibitory concentration (IC50) in assay [1], in assay [2] and in assay [3] were 45.9 nM, 133 nM and 3650 nM, respectively. In assay [2], the “SI MV4-11” value turned out to be 27.5.
As for `CC[C@@H](C(=O)[C@@H](C)[C@@H](O)[C@H](C)[C@@H]1O[C@@H]([C@@H](CC)C(=O)O)CC[C@@H]1C)[C@H]1O[C@]2(C=C[C@@H](NC(=O)C(=O)NCc3ccncc3)[C@]3(CC[C@@](C)([C@H]4CC[C@](O)(CC)[C@H](C)O4)O3)O2)[C@H](C)C[C@@H]1C` [FLC-00489-1•Na], in assay [1], the “SI A2780Cis” value was 28.0. Besides, the IC50 in assay [1] was determined as 175 nM; in assay [2], 338 nM; in assay [3], 4920 nM. Further, the “SI MV4-11” value in assay [2] came out at 14.6.
Consider `CC[C@@H](C(=O)[C@@H](C)[C@@H](O)[C@H](C)[C@@H]1O[C@@H]([C@@H](CC)C(=O)O)CC[C@@H]1C)[C@H]1O[C@]2(C=C[C@@H](NC(=O)C(Cl)Cl)[C@]3(CC[C@@](C)([C@H]4CC[C@](O)(CC)[C@H](C)O4)O3)O2)[C@H](C)C[C@@H]1C` [FLC-00493-1•Na], for which the “SI A2780Cis” value in assay [1] came to 26.9. The IC50 in assay [1] was found to be 2.14 nM; in assay [2], 5.43 nM; in assay [3] it was 57.7 nM. Besides, the “SI MV4-11” value in assay [2] is 10.6.
In the same order, the values of `CC[C@@H](C(=O)[C@@H](C)[C@@H](O)[C@H](C)[C@@H]1O[C@@H]([C@@H](CC)C(=O)O)CC[C@@H]1C)[C@H]1O[C@]2(C=C[C@@H](NC(=O)OCCN(C)C)[C@]3(CC[C@@](C)([C@H]4CC[C@](O)(CC)[C@H](C)O4)O3)O2)[C@H](C)C[C@@H]1C` [FLC-00497-1•Na] are 8.2, 278 nM, 278 nM, 2280 nM and 8.2.
On the same counts, the results for `CC[C@@H](C(=O)[C@@H](C)[C@@H](O)[C@H](C)[C@@H]1O[C@@H]([C@@H](CC)C(=O)O)CC[C@@H]1C)[C@H]1O[C@]2(C=C[C@@H](NC(=O)OCCCN(C)C)[C@]3(CC[C@@](C)([C@H]4CC[C@](O)(CC)[C@H](C)O4)O3)O2)[C@H](C)C[C@@H]1C` [FLC-00498-1•Na] are 6.6, 758 nM, 1560 nM, 5010 nM and 3.2.
In the same order, the values of `CC[C@@H](C(=O)[C@@H](C)[C@@H](O)[C@H](C)[C@@H]1O[C@@H]([C@@H](CC)C(=O)O)CC[C@@H]1C)[C@H]1O[C@]2(C=C[C@@H](NC(=O)CBr)[C@]3(CC[C@@](C)([C@H]4CC[C@](O)(CC)[C@H](C)O4)O3)O2)[C@H](C)C[C@@H]1C` [FLC-00501-1•Na, C20-aminosalinomycin 2-bromoacetamide] are 1.3, 2230 nM, 1740 nM, 2830 nM and 1.6.
For `CC[C@@H](C(=O)[C@@H](C)[C@@H](O)[C@H](C)[C@@H]1O[C@@H]([C@@H](CC)C(=O)O)CC[C@@H]1C)[C@H]1O[C@]2(C=C[C@@H](NS(=O)(=O)c3ccc(C)cc3)[C@]3(CC[C@@](C)([C@H]4CC[C@](O)(CC)[C@H](C)O4)O3)O2)[C@H](C)C[C@@H]1C` [FLC-00502-1•Na], in assay [1], the “SI A2780Cis” value worked out at 52.7 and the IC50 stood at 1.76 nM. For the same molecule, in assay [2], the “SI MV4-11” value is 28.1 and the IC50 was 3.3 nM. In assay [3], the IC50 is 92.7 nM.
As to `CC[C@@H](C(=O)[C@@H](C)[C@@H](O)[C@H](C)[C@@H]1O[C@@H]([C@@H](CC)C(=O)O)CC[C@@H]1C)[C@H]1O[C@]2(C=C[C@@H](NS(=O)(=O)c3ccc(Br)cc3)[C@]3(CC[C@@](C)([C@H]4CC[C@](O)(CC)[C@H](C)O4)O3)O2)[C@H](C)C[C@@H]1C` [FLC-00504-1•Na], in assay [1], the “SI A2780Cis” value is 30.5 and the half-maximal inhibitory concentration (IC50) came to 2.99 nM. In addition, in assay [2], the “SI MV4-11” value was determined as 20.7 and the IC50 is 4.4 nM. Further, in assay [3], the IC50 is 91.3 nM.
On the same counts, the results for `CC[C@@H](C(=O)[C@@H](C)[C@@H](O)[C@H](C)[C@@H]1O[C@@H]([C@@H](CC)C(=O)O)CC[C@@H]1C)[C@H]1O[C@]2(C=C[C@@H](NS(=O)(=O)c3cccs3)[C@]3(CC[C@@](C)([C@H]4CC[C@](O)(CC)[C@H](C)O4)O3)O2)[C@H](C)C[C@@H]1C` [FLC-00505-1•Na] are 15.2, 7.61 nM, 8.3, 14 nM and 116 nM.
In the same order, the values of `CC[C@@H](C(=O)[C@@H](C)[C@@H](O)[C@H](C)[C@@H]1O[C@@H]([C@@H](CC)C(=O)O)CC[C@@H]1C)[C@H]1O[C@]2(C=C[C@@H](NC(=O)OCCC#N)[C@]3(CC[C@@](C)([C@H]4CC[C@](O)(CC)[C@H](C)O4)O3)O2)[C@H](C)C[C@@H]1C` [FLC-00509-1•Na] are 14.7, 16.7 nM, 10.9, 22.6 nM and 246 nM.
For `CC[C@@H](C(=O)[C@@H](C)[C@@H](O)[C@H](C)[C@@H]1O[C@@H]([C@@H](CC)C(=O)O)CC[C@@H]1C)[C@H]1O[C@]2(C=C[C@@H](NC(=O)c3cc(OC)c(OC)c(OC)c3)[C@]3(CC[C@@](C)([C@H]4CC[C@](O)(CC)[C@H](C)O4)O3)O2)[C@H](C)C[C@@H]1C` [FLC-00573-1•Na], the half-inhibitory concentration (IC50) amounted to 158 nM in assay [2] and 1880 nM in assay [3].

The values are drawn from patent US20240294541A1, “COMPOUNDS CONSTITUTING C20-MODIFIED SALINOMYCIN DERIVATIVES, A METHOD FOR OBTAINING THE SAME, A COMPOSITION CONTAINING THE SAME AND A USE OF SAID COMPOUNDS” (FILECLO SPOLKA Z OGRANICZONA ODPOWIEDZIALNOSCIA, priority 2021, published 2024).
